Measured values reported in patent US6030942A, “Peptides peptide analogs peptidomimetics and other small molecules useful for inhibiting the activity of ribonucleotide reductase” (The Trustees of the University of Pennsylvania, priority 1998, dated 2000).
Read-outs that look alike come from different tables or passages of the source. Each block holds one molecule with its values, some of them ahead of it. Ends that are not written are not given here.

Legend:
[1] = molecular target: T1, mammalian ribonucleotide reductase (Bos taurus, UniProt Q32LP1); test: Peptide inhibition of mammalian ribonucleotide reductase activity; format: biochemical; details: for % RI (relative inhibitory potency, (IC50 AcFTLDADF)/(IC50 peptide analog)): mean and average deviation of 2-3 determinations, others single
T1 sequence (Q32LP1 1-791): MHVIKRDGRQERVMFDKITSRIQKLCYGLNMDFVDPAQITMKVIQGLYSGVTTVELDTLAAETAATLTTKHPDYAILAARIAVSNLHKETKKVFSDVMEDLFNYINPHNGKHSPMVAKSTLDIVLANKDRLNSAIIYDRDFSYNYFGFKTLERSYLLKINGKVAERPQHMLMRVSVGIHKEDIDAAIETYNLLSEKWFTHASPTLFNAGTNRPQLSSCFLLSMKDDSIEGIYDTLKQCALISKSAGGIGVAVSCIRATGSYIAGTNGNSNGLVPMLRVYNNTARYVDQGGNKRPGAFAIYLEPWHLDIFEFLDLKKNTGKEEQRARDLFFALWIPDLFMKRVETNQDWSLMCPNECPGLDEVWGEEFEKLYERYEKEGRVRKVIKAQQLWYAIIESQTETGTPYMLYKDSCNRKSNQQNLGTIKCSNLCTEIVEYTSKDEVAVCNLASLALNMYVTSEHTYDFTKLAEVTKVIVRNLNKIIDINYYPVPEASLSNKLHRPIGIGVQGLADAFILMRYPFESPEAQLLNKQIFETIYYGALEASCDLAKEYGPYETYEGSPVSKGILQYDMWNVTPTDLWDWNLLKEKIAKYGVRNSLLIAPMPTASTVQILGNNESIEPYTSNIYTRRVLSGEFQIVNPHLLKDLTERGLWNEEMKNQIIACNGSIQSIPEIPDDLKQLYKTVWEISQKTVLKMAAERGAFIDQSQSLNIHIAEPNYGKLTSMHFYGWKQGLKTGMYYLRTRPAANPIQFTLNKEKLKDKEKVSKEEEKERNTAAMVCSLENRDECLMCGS
Text: Standard assays of RR activity used in the studies presented herein involve the conversion of [^3 H]-ribonucleoside diphosphate (NDP) to [^3 H]-deoxyribonucleoside diphosphate (dNDP), using dithiothreitol as the external reductant.
All three methods yielded acceptable results, with the following limitations. Method 1 is useful for the assay of CDP to dCDP and ADP to dADP conversions, but is not useful for the assay of GDP reduction. It is also sensitive to large changes in the nucleotide composition of the assay medium. […] Method 2 is the easiest to perform on purified enzymes, and can be used with all four NDPs as substrates, but is difficult to use with crude enzyme, largely because contaminating phosphatase activities can skew results. Method 3 is usable with all four NDPs, but is also somewhat sensitive to large changes in the nucleotide composition of the assay medium and requires column separation at 4° C.

mouse R1 = molecular target: T2, mouse R1 (Mus musculus, UniProt P07742); details: cited from earlier work
T2 construct: made in house; host or cells: R1: Hi5 or Sf9 insect cells (baculovirus); R2: E. coli
T2 sequence (P07742 1-792): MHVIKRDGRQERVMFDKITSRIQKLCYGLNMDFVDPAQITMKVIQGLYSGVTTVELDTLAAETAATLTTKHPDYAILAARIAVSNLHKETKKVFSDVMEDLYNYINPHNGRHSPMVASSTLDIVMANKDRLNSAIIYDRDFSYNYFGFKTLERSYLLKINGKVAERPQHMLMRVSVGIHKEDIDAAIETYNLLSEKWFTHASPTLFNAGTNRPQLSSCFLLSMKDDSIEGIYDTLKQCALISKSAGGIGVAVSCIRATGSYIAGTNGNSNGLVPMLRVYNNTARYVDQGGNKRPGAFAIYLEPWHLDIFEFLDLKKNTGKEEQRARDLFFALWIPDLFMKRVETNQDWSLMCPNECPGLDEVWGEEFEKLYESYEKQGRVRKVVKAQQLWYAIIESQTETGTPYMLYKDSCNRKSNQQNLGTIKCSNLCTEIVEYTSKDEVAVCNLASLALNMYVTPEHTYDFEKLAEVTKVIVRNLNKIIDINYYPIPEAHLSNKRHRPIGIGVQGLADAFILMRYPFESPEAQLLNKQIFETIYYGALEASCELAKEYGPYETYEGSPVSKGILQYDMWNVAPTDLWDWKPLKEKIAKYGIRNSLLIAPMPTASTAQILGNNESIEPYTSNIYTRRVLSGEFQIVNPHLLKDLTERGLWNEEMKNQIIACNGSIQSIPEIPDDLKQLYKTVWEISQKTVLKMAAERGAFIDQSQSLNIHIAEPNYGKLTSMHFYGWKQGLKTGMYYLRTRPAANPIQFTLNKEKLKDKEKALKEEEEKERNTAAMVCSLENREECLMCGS

[2] = molecular target: S. cerevisiae ribonucleotide reductase (Saccharomyces cerevisiae, UniProt P21524); test: Peptide inhibition of S. cerevisiae ribonucleotide reductase activity; format: biochemical; details: Table 9; read-out: IC50, Yeast RR
S. cerevisiae ribonucleotide reductase, sequence (P21524 whole entry): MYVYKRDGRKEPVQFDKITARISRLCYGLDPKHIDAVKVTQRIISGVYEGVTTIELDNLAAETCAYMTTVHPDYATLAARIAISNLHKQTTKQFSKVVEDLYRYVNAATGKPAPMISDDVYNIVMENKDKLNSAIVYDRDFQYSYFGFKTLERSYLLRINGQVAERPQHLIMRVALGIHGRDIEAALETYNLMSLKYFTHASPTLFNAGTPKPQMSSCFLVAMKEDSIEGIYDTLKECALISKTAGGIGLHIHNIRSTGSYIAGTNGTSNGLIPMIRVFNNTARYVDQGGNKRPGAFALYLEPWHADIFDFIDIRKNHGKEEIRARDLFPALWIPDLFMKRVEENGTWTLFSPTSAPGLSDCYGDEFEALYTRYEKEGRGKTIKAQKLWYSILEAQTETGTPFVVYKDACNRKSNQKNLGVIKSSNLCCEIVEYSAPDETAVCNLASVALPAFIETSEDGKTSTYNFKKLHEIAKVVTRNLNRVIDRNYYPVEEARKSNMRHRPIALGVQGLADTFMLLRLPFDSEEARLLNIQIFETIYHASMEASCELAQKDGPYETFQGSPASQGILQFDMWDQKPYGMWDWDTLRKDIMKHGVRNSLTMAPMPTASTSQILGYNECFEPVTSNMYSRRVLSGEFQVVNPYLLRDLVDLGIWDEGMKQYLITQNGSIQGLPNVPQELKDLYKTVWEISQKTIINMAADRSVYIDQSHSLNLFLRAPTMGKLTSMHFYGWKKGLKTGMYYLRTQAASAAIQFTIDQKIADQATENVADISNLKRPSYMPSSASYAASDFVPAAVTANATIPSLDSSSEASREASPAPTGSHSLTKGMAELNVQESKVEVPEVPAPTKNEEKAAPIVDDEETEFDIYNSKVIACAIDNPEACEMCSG

[3] = molecular target: T3, mouse Y177F-R2 with recombinant mouse R1 (Mus musculus, UniProt P07742+P11157, Y177F); test: Inhibition of Y177F-R2-dependent RR activity; details: dATP in presence of relatively high ATP
T3 sequence (P07742 1-792): T2 sequence (P07742 1-792)
T3 sequence (P11157 1-390 Y177F): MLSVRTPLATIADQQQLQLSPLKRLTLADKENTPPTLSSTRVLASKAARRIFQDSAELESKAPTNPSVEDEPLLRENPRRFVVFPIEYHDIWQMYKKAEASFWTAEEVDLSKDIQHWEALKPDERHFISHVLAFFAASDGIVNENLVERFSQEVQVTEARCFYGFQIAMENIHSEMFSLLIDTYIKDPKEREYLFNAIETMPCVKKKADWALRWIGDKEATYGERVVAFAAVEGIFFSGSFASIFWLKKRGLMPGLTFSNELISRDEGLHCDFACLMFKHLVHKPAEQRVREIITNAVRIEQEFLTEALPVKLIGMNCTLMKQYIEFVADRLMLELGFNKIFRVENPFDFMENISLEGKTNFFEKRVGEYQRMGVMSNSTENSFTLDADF

[4] = molecular target: T1, mammalian ribonucleotide reductase; details: cited from earlier work
E. coli RR = molecular target: T4, E. coli RR (Escherichia coli, UniProt P00452); details: cited from earlier work
T4 sequence (P00452 whole entry, looked up): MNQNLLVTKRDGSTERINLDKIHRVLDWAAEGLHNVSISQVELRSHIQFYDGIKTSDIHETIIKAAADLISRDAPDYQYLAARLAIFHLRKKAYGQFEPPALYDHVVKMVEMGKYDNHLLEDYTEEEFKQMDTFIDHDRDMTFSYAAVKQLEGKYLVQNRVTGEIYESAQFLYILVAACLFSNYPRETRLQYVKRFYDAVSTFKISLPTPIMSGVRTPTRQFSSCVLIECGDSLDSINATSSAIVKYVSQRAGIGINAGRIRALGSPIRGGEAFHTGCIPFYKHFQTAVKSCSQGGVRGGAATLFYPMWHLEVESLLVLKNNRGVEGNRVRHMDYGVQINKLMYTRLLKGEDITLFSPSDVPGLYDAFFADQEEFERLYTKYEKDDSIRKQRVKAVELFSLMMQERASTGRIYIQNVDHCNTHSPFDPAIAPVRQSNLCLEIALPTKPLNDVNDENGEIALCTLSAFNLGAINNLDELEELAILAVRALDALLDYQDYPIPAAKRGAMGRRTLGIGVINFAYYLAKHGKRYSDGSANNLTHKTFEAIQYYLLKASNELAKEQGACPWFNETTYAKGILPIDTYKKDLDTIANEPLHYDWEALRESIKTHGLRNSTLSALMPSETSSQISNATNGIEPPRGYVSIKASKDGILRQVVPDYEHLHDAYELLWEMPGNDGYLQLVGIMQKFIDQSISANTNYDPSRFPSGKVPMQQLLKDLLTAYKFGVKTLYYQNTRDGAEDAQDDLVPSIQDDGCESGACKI

[5] = Table 8, Dixon plots of 4-6 concentration points, ranges are two independent determinations, read-out: IC50

IC50 [1, 5]: > 400 µM
Molecule: FTLDADF [FTLDADF, Phe-Thr-Leu-Asp-Ala-Asp-Phe]

% RI (relative inhibitory potency, (IC50 AcFTLDADF)/(IC50 peptide analog)) ([1]; Table 8): 100%
Molecule: Ac-SFTLDADF
Affinity for mR1 compared with AcFTLDADF (mouse R1): same affinity

IC50 ([1]; Table 9, read-out: IC50, Mammalian RR): 100 µM
Molecule: Ac-FTFNEDF [AcFTFNEDF]

Molecule: Ac-TFNEDF [AcTFNEDF]
IC50 [2]: 600 µM

IC50 [3]: 20 µM
Molecule: Nc1ncnc2c1ncn2[C@H]1C[C@H](O)[C@@H](COP(=O)(O)OP(=O)(O)OP(=O)(O)O)O1 [dATP]

IC50 [1, 5]: 25 to 29 µM
Molecule: Ac-FTLNADF [Ac-FTLNADF, Acetyl-Phe-Thr-Leu-Asn-Ala-Asp-Phe]

Fold decrease in RI relative to N-AcFTLDADF ([1]; Table 8): five to ten
% RI (relative inhibitory potency, (IC50 AcFTLDADF)/(IC50 peptide analog)) ([1]; Table 8): 10%
Molecule: Acetyl-(p-azido-Phe)-Thr-Leu-Asp-Ala-Asp-Phe [Ac-F(4'-N3)TLDADF]

IC50 [1, 5]: > 400 µM
Molecule: Ac-LDADF [Ac-LDADF]

Fold decrease in RI relative to N-AcFTLDADF ([1]; Table 8): > 30 fold
% RI (relative inhibitory potency, (IC50 AcFTLDADF)/(IC50 peptide analog)) ([1]; Table 8): 2.9 ± 0.4%
Molecule: Ac-FTLAADF [Ac-FTLAADF]

Fold decrease in RI relative to N-AcFTLDADF ([1]; Table 8): > 50 fold
% RI (relative inhibitory potency, (IC50 AcFTLDADF)/(IC50 peptide analog)) ([1]; Table 8): 1.7 ± 0.15%
Molecule: Ac-FTLDAEF [Ac-FTLDAEF]

IC50 [1, 5]: 80 µM
Molecule: SFTLDADF

Fold decrease in RI relative to N-AcFTLDADF ([1]; Table 8): five to ten
% RI (relative inhibitory potency, (IC50 AcFTLDADF)/(IC50 peptide analog)) ([1]; Table 8): 10%
Molecule: Acetyl-(p-amino-Phe)-Thr-Leu-Asp-Ala-Asp-Phe [Ac-F(4'-NH2)TLDADF]

% RI (relative inhibitory potency, (IC50 AcFTLDADF)/(IC50 peptide analog)) ([1]; Table 8): 18 ± 4.2%
Molecule: Ac-FTFDADF [Ac-FTFDADF]

Molecule: DDLSNFQL [reference compound]
Inhibition of mRR [4]: does not inhibit mRR
Inhibition of E. coli RR (E. coli RR): inhibits eRR
